Legend:
[1] = target: T1, AT2 receptor (Sus scrofa, UniProt A0A4X1W622); conditions: read-out: dissociation constant (Kd) at AT2 receptor; Scatchard analysis, porcine myometrial membranes, [L]=0.057 nM
T1 sequence (A0A4X1W622 1-362): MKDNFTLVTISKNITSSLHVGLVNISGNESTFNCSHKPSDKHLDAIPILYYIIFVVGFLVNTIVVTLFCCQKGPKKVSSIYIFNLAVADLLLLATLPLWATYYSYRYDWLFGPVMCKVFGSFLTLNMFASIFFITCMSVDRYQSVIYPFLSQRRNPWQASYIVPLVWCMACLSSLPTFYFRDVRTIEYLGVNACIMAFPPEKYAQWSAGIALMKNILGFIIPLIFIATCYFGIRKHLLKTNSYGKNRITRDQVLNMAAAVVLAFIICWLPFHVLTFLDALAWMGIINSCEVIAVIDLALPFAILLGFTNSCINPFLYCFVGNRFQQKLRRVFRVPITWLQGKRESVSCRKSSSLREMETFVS
Protocol: Myometrial membranes were prepared from porcine uteri according to the method by Nielsen et al (Clin. Exp. Pharm. Phys. (1997) 24, 309). […] Samples were incubated at 25° C. for 1 h, and binding was terminated by filtration through Whatman GF/B glass-fiber filter sheets using a Brandel cell harvester. The filters were washed with 3×3 mL of Tris-HCl (pH 7.4) and transferred to tubes. The radioactivity was measured using a gamma counter. […] The binding data were best fitted with a one-site fit. All experiments were performed at least in triplicate.

[2] = test system: duodenal mucosa; experiment: Test C: duodenal mucosal alkaline secretion assay; assay type: in vivo; conditions: co-administration with title compounds of the Examples, anaesthetised rats
Text: Duodenal Mucosal Alkaline Secretion Assay
Compounds were exposed to the duodenal mucosa in barbiturate-anaesthetised rats prepared for in situ titration of duodenal mucosal alkaline secretion, according to the methodology described by Flemström et al in Am. J. Physiol. (1982) 243, G348.

Row | Kd [1] | Compound | effect of co-administration on the mucosal alkalisation stimulated by title compounds [2]
1 | 0.7 ± 0.1 nM | Asp^1-Arg^2-Val^3-Tyr^4-Ile^5-His^6-Pro^7-Phe^8 [Ang II] | 
2 |  | Cc1cc(Cn2cnc3c2C[C@@H](C(=O)O)N(C(=O)C(c2ccccc2)c2ccccc2)C3)ccc1N(C)C [PD123319] | blocked

From patent US8067418B2, “Tricyclic angiotensin II agonists” (Vicore Pharma AB, priority 2005, dated 2011)
